Assay results reported in patent US20240302379A1, “METHODS FOR IDENTIFYING AND MONITORING INTERACTIONS OF PROTEIN WITH LIGAND” (Agency for Science, Technology and Research, priority 2020, published 2024).
Entries after “also recorded” stand apart in the source; their conditions may differ.

Tests used:
DHFR-HiBiT = biological target: T1, DHFR-HiBiT (Homo sapiens, UniProt P00374); assay: UCEP-Screen in HEK293 DHFR-HiBiT reporter cells (bioluminescence); format: binding; conditions: 20 μM, 10 minutes
T1 construct: expressed in transfected cells; host or cells: Flp-In T-Rex HEK293
T1 sequence (P00374 1-187): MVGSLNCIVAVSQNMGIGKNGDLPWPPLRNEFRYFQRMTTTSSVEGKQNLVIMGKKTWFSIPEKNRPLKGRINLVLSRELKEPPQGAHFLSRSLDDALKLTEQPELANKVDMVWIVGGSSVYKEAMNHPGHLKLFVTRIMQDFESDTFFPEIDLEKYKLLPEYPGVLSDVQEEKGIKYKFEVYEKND
Description: UCEP conditions such as denaturant concentration and dilution factor should be optimized for each target before performing any HTS. Here, Flp-In T-Rex cells were used for assay development. Cells were seeded into the 96-well clear bottom white microplate in growth medium and the expression of HiBiT-tagged protein was induced with tetracycline. Cells are treated with chemical of interest for specific duration, before incubation in PBS containing different concentrations of urea. Urea was then diluted with PBS. HiBiT lytic detection buffer containing LgBiT and substrate was then added. Bioluminescence was then measured.

K562 living cells = assay: UCEP-ID MR experiment (proteome-wide target deconvolution by quantitative LC-MS/MS); conditions: K562, 10 μM, 10 minutes
HER2-HiBIT = biological target: T2, HER2-HiBIT (Homo sapiens, UniProt P04626); assay: UCEP in HER2-HiBIT reporter cells with 1% CHAPS (bioluminescence); format: binding; conditions: 3M to 5M urea
T2 construct: expressed in transfected cells; host or cells: reporter cells
T2 sequence (P04626 23-1255): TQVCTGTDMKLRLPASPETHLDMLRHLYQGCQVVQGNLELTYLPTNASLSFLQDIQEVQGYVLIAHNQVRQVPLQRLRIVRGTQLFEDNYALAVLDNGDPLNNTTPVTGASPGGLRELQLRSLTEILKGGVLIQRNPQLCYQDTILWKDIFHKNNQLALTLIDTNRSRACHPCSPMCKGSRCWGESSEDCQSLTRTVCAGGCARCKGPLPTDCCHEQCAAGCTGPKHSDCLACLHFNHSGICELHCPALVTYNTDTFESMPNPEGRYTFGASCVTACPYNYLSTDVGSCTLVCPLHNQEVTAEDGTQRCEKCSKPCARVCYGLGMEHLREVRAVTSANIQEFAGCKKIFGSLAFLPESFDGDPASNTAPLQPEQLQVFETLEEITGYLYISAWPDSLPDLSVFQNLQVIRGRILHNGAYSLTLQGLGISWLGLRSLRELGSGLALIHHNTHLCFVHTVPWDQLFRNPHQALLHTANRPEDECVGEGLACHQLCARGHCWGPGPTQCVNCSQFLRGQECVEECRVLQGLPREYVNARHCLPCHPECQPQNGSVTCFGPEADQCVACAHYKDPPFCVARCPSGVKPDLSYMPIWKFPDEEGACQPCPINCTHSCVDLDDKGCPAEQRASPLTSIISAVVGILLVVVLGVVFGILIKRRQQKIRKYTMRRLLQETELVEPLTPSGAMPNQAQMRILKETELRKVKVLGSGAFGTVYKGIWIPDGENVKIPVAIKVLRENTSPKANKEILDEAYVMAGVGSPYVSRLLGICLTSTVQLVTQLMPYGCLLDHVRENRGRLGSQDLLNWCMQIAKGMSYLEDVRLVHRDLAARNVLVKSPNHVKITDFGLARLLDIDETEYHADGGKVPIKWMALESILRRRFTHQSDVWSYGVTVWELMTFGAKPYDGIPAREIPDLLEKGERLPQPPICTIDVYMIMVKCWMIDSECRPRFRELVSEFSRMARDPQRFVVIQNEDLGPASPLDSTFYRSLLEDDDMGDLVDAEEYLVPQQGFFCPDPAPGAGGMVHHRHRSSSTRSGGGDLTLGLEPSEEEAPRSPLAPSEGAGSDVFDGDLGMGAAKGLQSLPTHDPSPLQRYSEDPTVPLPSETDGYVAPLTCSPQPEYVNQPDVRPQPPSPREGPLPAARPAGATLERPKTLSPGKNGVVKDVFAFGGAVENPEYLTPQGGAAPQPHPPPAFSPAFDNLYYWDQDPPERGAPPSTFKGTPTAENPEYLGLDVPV
Description: In the Flp-In T-Rex system, modified pENTR1A plasmids, entry vectors, are used to clone protein of interest. pENTR1A plasmids are modified to include thirty-three nucleotide sequences of HiBiT for tagging protein of interest at either N- or C terminus. A HiBiT-tagged protein of interest is transferred to one of gateway destination vectors, pFRT/TO/DEST or pEF5/FRT/V5-DEST, via gateway LR reaction. Flp-In T-Rex HEK293 cells are transfected with the final destination vector that include HiBiT-tagged gene of interest and pOG44 vector expressing Flp recombinase. Cells are selected with Hygromycin and Blasticidin to remove untransformed cells. In the CRISPR system, the ribonucleoprotein complex including Cas9, crRNA, tracrRNA is formed in vitro. Cells are electroporated to deliver the Cas9 ribonucleoprotein complex along with a single-stranded donor oligonucleotide. Next day, cells are sorted as a single cell into a transparent 96-well tissue culture microplate and incubated until they became confluent.
UCEP conditions such as denaturant concentration and dilution factor should be optimized for each target before performing any HTS. Here, Flp-In T-Rex cells were used for assay development. Cells were seeded into the 96-well clear bottom white microplate in growth medium and the expression of HiBiT-tagged protein was induced with tetracycline. […] Bioluminescence was then measured. […]

| Structure (SMILES) | DHFR-HiBiT protein stabilization upon UCEP (DHFR-HiBiT) | also measured |
| --- | --- | --- |
| CNC(=O)c1ccc(N2C(=S)N(c3ccc(C#N)c(C(F)(F)F)c3)C(=O)C2(C)C)cc1F [Enzalutamide] | did not significantly change | – |
| CN(Cc1cnc2nc(N)nc(N)c2n1)c1ccc(C(=O)N[C@@H](CCC(=O)O)C(=O)O)cc1 [MTX, methotrexate] | – | Binding targets identified by UCEP-ID (K562 living cells): DHFR |
| CN[C@@H]1C[C@H]2O[C@@](C)([C@@H]1OC)n1c3ccccc3c3c4c(c5c6ccccc6n2c5c31)C(=O)NC4 [Staurosporine] | did not significantly change | – |
| Cc1cc(Nc2ncnc3ccc(NC4=NC(C)(C)CO4)cc23)ccc1Oc1ccn2ncnc2c1 [Tucatinib] | – | Stabilization of HER2-HiBIT (fold change of bioluminescence vs control) (HER2-HiBIT): maximum stabilization of HER2 at 3M urea; also recorded: increased stability |
